Consider 2 compounds from ChEMBL document CHEMBL5365472, “DDD-028: A potent, neuroprotective, non-opioid compound for the treatment of diabetic neuropathy” (Bioorg Med Chem Lett, 2023).

Structures are written as SMILES. Activity calls are given as the source filed them.

Common to all, as to format: functional, organism-based
The test system of test [1] is Rattus norvegicus. Kind of test: Analgesic activity in rat acute pain model at 3 mg/kg by tail flick test.
Test [2] relates to Rattus norvegicus. Kind of test: Analgesic activity in rat acute pain model at 3 mg/kg by hot plate test.
Test [3] relates to Rattus norvegicus. Kind of test: Anti-allodynic activity in rat model of STZ induced diabetic neuropathy assessed as reduction in mechanical hyperalgesia by measuring increase in weight bearing at 1 mg/kg, po measured after 30 min by paw pressure test.
For test [4], the system named is Rattus norvegicus. Kind of test: Analgesic activity in rat acute pain model at 1 to 10 mg/kg by hot plate test. Conditions: dose 1-10 mg/kg.
Test [5] relates to Rattus norvegicus. The test is described as follows: Analgesic activity in rat acute pain model at 1 to 10 mg/kg by tail flick test. Conditions: dose 1-10 mg/kg.
The subject of test [6] is Rattus norvegicus. The test is described as follows: Anti-allodynic activity in rat model of STZ induced diabetic neuropathy assessed as reduction in mechanical allodynia by measuring increase in paw withdrawal threshold at 25 mg/kg, po measured for 90 min by electronic von frey test.
The next test concerns Mus musculus. Kind of test: Anti-allodynic activity in mouse model of CCI induced neuropathic pain assessed as increase in paw withdrawal threshold at 3 mg/kg, po by static von frey test.
For test [7], the system named is Rattus norvegicus. Kind of test: Anti-allodynic activity in rat model of STZ induced diabetic neuropathy assessed as reduction in mechanical hyperalgesia by measuring increase in weight bearing at 25 mg/kg, po measured after 90 min by paw pressure test.
Test [8] relates to Rattus norvegicus. Kind of test: Anti-allodynic activity in rat model of STZ induced diabetic neuropathy assessed as reduction in mechanical allodynia by measuring increase in paw withdrawal threshold at 1 mg/kg, po measured after 30 min by electronic von frey test.

In the case of `CN1CC[C@]23c4c5ccc(O)c4O[C@H]2[C@@H](O)C=C[C@H]3[C@H]1C5`, the result in the test with Rattus norvegicus [1] and in the test on Rattus norvegicus [2] was Active.

Regarding `CN1CCc2c(c3cccc4c3n2CCc2ccccc2-4)C1`, the result in the test on Rattus norvegicus [3], with Rattus norvegicus [6], in the test on Mus musculus, in the test with Rattus norvegicus [7] and in the test on Rattus norvegicus [8] was Active. In addition, the result with Rattus norvegicus [4] and with Rattus norvegicus [5] was inactive.
